From publication PMC8508710, “Biochemical Characterization of 13-Lipoxygenases of Arabidopsis thaliana” (International Journal of Molecular Sciences, 2021)
Read-outs that look alike come from different tables or passages of the source.

What was measured:
[1] = biological target: T1, LOX4 (Arabidopsis thaliana, UniProt Q9FNX8); experiment: LOX4 activity, spectrophotometric (conjugated diene formation at 234 nm); conditions: for Relative Activity (%) LOX4: E. coli lysate in 50 mM TRIS pH 8.0 diluted 1:10, 50 mM HEPES pH 8.0 + 1 mM metal salt, LeA, 234 nm; for Photometry Relative activity (%) LOX4: enzyme 0.225 µg/µL incubated 10 min 30 °C with 280 µM chemical, 4.8 µM LeA, 50 mM Tris-HCl pH 7.2, vs solvent control
T1 sequence (Q9FNX8 71-926): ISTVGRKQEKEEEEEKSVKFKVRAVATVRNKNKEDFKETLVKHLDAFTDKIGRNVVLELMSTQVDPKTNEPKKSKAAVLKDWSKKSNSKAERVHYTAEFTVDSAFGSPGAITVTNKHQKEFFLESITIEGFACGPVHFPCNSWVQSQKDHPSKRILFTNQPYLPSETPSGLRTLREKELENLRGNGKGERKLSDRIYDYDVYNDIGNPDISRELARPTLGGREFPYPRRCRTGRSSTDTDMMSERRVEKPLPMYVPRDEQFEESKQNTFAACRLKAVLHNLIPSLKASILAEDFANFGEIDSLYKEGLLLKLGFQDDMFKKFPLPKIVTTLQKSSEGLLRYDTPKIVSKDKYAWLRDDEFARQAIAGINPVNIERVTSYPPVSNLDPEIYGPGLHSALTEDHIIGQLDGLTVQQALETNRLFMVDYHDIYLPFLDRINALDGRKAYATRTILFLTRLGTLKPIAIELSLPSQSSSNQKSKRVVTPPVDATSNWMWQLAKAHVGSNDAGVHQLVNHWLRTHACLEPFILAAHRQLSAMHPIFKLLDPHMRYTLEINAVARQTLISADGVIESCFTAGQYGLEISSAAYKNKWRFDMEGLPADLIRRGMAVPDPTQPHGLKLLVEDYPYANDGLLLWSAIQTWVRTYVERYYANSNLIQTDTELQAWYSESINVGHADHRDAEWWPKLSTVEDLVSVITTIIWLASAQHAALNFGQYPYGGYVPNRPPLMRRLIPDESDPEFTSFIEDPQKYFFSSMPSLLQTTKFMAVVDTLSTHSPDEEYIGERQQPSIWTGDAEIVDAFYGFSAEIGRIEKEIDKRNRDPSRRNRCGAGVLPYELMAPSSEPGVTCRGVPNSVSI

[2] = biological target: T2, LOX2 (Arabidopsis thaliana, UniProt P38418); experiment: LOX2 activity, spectrophotometric (conjugated diene formation at 234 nm); conditions: for LOX2 activity in presence of Cd2+: 9 µM LeA, 20 mM HEPES pH 8.0, control 0.8 ± 0.2; for Relative Activity (%) LOX2: E. coli lysate in 50 mM TRIS pH 8.0 diluted 1:10, 50 mM HEPES pH 8.0 + 1 mM metal salt, LeA, 234 nm; for Mode of inhibition: Lineweaver–Burk plot, 12-OPDA tested at 226 µM; for Photometry Relative activity (%) LOX2: enzyme 0.225 µg/µL incubated 10 min 30 °C with 280 µM chemical, 4.8 µM LeA, 50 mM Tris-HCl pH 7.2, vs solvent control
T2 sequence (P38418 71-896): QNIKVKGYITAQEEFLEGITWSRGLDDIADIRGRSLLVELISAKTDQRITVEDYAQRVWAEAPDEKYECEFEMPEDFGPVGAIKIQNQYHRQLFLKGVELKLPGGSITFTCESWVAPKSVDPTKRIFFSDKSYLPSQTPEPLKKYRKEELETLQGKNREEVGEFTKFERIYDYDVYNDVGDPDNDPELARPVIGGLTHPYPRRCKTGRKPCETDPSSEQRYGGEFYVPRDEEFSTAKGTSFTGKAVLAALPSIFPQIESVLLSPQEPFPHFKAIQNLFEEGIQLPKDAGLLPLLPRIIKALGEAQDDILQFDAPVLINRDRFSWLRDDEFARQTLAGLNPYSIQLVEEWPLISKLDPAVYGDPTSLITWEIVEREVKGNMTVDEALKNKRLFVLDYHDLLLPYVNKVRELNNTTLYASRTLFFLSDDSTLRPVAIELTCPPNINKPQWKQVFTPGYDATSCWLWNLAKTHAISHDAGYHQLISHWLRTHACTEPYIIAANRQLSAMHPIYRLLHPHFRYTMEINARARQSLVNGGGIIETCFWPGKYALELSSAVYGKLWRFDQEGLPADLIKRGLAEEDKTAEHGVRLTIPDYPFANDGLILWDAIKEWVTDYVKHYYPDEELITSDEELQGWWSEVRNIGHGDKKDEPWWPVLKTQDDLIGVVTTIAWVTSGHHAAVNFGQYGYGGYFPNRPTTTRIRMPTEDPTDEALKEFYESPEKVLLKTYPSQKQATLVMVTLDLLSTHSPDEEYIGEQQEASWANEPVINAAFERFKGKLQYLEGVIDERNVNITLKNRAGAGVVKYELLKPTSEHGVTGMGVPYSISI

[3] = biological target: T3, LOX3 (Arabidopsis thaliana, UniProt Q9LNR3); experiment: LOX3 activity, oxygen electrode (polarography); assay type: biochemical; design: made in house; host or cells: E. coli Nico21(DE3), pET15b; conditions: for Relative Activity (%) LOX3: 1 mM metal salt, LeA 30 µM in 20 mM HEPES pH 8.0, oxygen consumption vs control without metal
T3 sequence (Q9LNR3 71-919): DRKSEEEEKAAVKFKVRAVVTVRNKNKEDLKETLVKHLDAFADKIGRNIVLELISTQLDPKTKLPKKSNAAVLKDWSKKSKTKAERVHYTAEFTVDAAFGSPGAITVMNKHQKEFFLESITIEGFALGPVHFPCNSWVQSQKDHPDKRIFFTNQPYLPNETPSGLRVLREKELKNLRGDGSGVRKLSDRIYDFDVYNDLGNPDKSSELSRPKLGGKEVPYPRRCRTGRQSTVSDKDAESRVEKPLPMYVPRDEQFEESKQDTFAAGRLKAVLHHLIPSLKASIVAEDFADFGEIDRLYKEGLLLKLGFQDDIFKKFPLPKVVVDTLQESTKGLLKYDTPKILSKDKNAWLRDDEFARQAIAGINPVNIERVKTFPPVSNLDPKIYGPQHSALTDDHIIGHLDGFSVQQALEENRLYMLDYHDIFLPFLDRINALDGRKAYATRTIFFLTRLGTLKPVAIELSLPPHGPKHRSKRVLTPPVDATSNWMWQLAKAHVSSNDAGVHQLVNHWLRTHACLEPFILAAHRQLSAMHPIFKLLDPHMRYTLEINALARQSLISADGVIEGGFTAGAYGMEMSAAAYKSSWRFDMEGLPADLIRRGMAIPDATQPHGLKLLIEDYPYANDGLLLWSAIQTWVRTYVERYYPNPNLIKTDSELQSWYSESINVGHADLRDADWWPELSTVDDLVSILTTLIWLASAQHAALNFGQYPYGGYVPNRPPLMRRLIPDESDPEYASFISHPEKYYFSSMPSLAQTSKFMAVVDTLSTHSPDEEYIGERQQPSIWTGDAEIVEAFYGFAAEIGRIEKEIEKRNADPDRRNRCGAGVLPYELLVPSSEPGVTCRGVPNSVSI

[4] = test system: AOS; design: method as in PMID 12223729; conditions: cited from earlier work
[5] = biological target: T3, LOX3; experiment: LOX3 activity, oxygen electrode (polarography); assay type: biochemical; design: made in house; host or cells: E. coli Nico21(DE3), pET15b; conditions: enzyme incubated with 280 µM chemical (1/10 vol of 2.8 mM), injected into 30 µM LeA, 50 mM Tris-HCl pH 7.2; vs solvent control; read-out: Polarography Relative Activity (%) LOX3

O=S(=O)([O-])[O-].[Cd+2] [CdSO4]
Relative Activity (%) LOX4 [1]: 40±6% | LOX2 activity in presence of Cd2+ ([2]; 40 µM Cd2+, listed as Cd2+): 2.3 ± 0.3 nmol/s/mg | LOX2 activity in presence of Cd2+ ([2]; 40 µM Cd2+, listed as Cd^2+): 2.3 ± 0.3 nmol/s/mg | LOX2 activity in presence of Cd2+ ([2]; 150 µM Cd2+, listed as Cd2+): 5.2 ± 0.9 nmol/s/mg | LOX2 activity in presence of Cd2+ ([2]; 150 µM Cd2+, listed as Cd^2+): 5.2 ± 0.9 nmol/s/mg | LOX2 activity in presence of Cd2+ ([2]; 1180 µM Cd2+, listed as Cd2+): 5.7 ± 0.7 nmol/s/mg | LOX2 activity in presence of Cd2+ ([2]; 1180 µM Cd2+, listed as Cd^2+): 5.7 ± 0.7 nmol/s/mg | Relative Activity (%) LOX2 [2]: 950±240% | Relative Activity (%) LOX3 [3]: no activity

CCC=CCC1C(=O)C=CC1CCCCCCCC(=O)O (stereo not drawn) [12-OPDA, cis-(+)-12-oxophytodienoic acid]
IC50 [1]: 48 µM | Ki [1]: 10 µM | Mode of inhibition ([1]; Lineweaver–Burk and Dixon plots): non-competitive or mixed | Photometry Relative activity (%) LOX4 [1]: 6 ± 4% | Sensitivity of AOS ([4]; 0.5 mM): insensitivity | IC50 [2]: 280 to 338 µM | Mode of inhibition [2]: non-competitive | Photometry Relative activity (%) LOX2 [2]: 49 ± 10% | activity at 280 µM [5]: 60 ± 5%

O=C(O)c1ccccc1O [SA, salicylic acid]
activity at 280 µM [5]: 101 ± 5%

[Ca+2].[Cl-].[Cl-] [CaCl2]
Relative Activity (%) LOX4 [1]: 85±6% | Sensitivity of AOS ([4]; 1.0 mM): insensitivity | Relative Activity (%) LOX2 [2]: 550±40% | Relative Activity (%) LOX3 [3]: 117 ± 10%

CC/C=C\CC1C(=O)CCC1CC(=O)OC (stereo not shown) [MJ, methyl jasmonate]
Mode of inhibition [2]: competitive | Photometry Relative activity (%) LOX2 [2]: 62 ± 10% | activity at 280 µM [5]: 85 ± 5%

[Cl-].[Cl-].[Mg+2] [MgCl2]
Relative Activity (%) LOX4 [1]: 107±2% | Sensitivity of AOS ([4]; 1.0 mM): insensitivity | Relative Activity (%) LOX2 [2]: 188±28% | Increase of LOX3 activity in comparison to control ([3]; 1 mM cation, LeA 30 µM, pH 8.0): 35% | Relative Activity (%) LOX3 [3]: 135 ± 4%

O=C(O)/C=C/CCCCCCCCC(=O)O [TA, traumatic acid]
Photometry Relative activity (%) LOX4 [1]: 106 ± 4% | Photometry Relative activity (%) LOX2 [2]: 105 ± 5% | activity at 280 µM [5]: 100 ± 5%
